{"source": "patent US20250129331A1", "about": "“MEDIUM COMPOSITION FOR CULTURE OF EXTRAEMBRYONIC ENDODERM STEM CELLS” (SEOUL NATIONAL UNIVERSITY R&DB FOUNDATION, priority 2023, published 2025)", "format_in_all_cases": "cell-based, pig", "key": {"porcine XEN cells [1]": {"tested_on": "porcine XEN cells", "test": "Culture of porcine XEN cells under various concentrations of essential factors (colony number, qPCR)", "conditions": "for concentration range appropriate for XEN cell culture: 7 days, colony number and qPCR of GATA6, SALL4, SPARC", "experimental": "Total RNA was extracted using TRIzol reagent (Invitrogen; Carlsbad, USA) and cDNA was synthesized using High-Capacity RNA-to-cDNA Kit (Applied Biosystems; Waltham, MA, USA). cDNA was amplified using the primer sets listed in Table 1 below and PowerSYBR® Green PCR Master Mix (Applied Biosystems).\nIn addition, in order to fine-tune the culture system, porcine XEN cells were cultured under various concentrations of essential factors including FGF2, LIF and CHIR99021."}, "porcine XEN cells [2]": {"tested_on": "porcine XEN cells", "test": "Withdrawal of signaling molecules or supplements from porcine XEN cell medium (morphology, AP staining, GATA6 ICC)", "conditions": "for colony morphology / proliferation on withdrawal of the factor: factor withdrawn from medium with B27, CHIR, FGF2, LIF, Act A, FIG. 3a; for AP staining and GATA6 expression on withdrawal of the factor: factor withdrawn, FIG. 3b, 3c", "experimental": "Before staining, all cell samples were pre-cultured at 4° C. for 10 minutes and fixed with 4% paraformaldehyde for 15 minutes. After washing with Dulbecco's Phosphate Buffered Saline (DPBS) (Welgene), the fixed cells were stained with a buffer solution containing nitro blue tetrazolium chloride and 5-bromo-4-chloro-3-indolyl phosphate toluidine salt stock solution (Roche; Basel, Switzerland) at room temperature for 30 minutes. Stained cells were observed under an inverted microscope.\nFor immunostaining, the cells were fixed in 4% (w/v) paraformaldehyde. After washing with Dulbecco's Phosphate Buffered Saline (DPBS), the fixed cells were treated with 0.2% Triton-X100 (Sigma-Aldrich) at 4° C. for 2 hours. The cells were then treated with Dulbecco's Phosphate Buffered Saline (DPBS) containing 10% (v/v) goat or donkey serum for 1 hour to prevent non-specific binding. Serum-treated cells were cultured with primary antibodies at 4° C. for 24 hours. The primary antibodies used were as follows: rabbit anti-SOX2 (1:200, Millipore; AB5603), rabbit anti-NANOG (1:200, PeproTech; Rocky Hill, NJ, USA; 500-P236), chicken anti-OCT4 (1:100, Abcam; Cambridge, UK; ab134218), goose anti-GATA6 (15 μg/mL; R&D systems; AF1700), goose anti-SOX17 (1:200, R&D systems; AF1924), and rabbit anti-GATA4 (1:200, Abcam; ab84593). After incubation with primary antibodies, the cells were treated with Alexa Fluor-conjugated secondary antibodies at 4° C. for 24 hours. Nuclei were stained with Hoechst 33342 (Molecular Probes; Eugene, OR, USA). Images of stained cells were taken using a TE2000-U inverted fluorescence microscope (Nikon; Tokyo, Japan).\nFIGS. 3a, 3b and 3c show changes in the withdrawal of signaling molecules or supplements for XEN cells.\nIn order to optimize the culture system of porcine XEN cells, B27 supplement, CHIR, FGF2, LIF or Act A was withdrawn from the medium during maintenance, and essential growth factors and signaling molecules were identified. Colonies were morphologically analyzed (FIG. 3a). […] In order to verify the responsiveness to these factors, AP staining and ICC for GATA6, which is a representative XEN cell marker, were performed to support the morphological analysis results (FIGS. 3b and 3c)."}, "porcine XEN cells [3]": {"tested_on": "porcine XEN cells", "test": "Screening of serum-free culture conditions (signaling molecules, KSR, B27) for porcine XEN cells", "conditions": "FIG. 2a", "experimental": "Porcine XEN cells were cultured under various conditions. Each of six fetal bovine serum (FBS) (three different batches purchased from Hyclone, Biowest, TCB and Genedepot) was applied to maintain porcine XEN cells. In addition, several signaling molecules and supplements were added to the basal medium supplemented with 15% (v/v), 10% (v/v) or 5% (v/v) knockout serum replacement (KSR) (Gibco; Gaithersburg, MD, USA) and tested. Factors tested were fibroblast growth factor 2 (FGF2) (R&D Systems; Minneapolis, MN, USA), human recombinant leukemia inhibitory factor (hrLIF) (Millipore; MA, USA), 5 ng/ml activin A (Activin A; R&D Systems), CHIR99021 (Cayman chemical; Ann Arbor, MI, USA), which is a GSK-3B inhibitor, and 1×B27 supplement (Gibco). The basal medium was a DMEM/F12 based medium, which consisted of 1× Glutamax, 0.1 mM β-mercaptoethanol and 1× antibiotic-antimycotic (all of which are manufactured by Gibco). The medium was changed every 24 hours and cultured under conditions of 5% CO2, 5% O2 and 38° C.\nThe present inventors performed screening of various factors in a DMEM/F12-based KSR-containing medium, which is commonly used for a serum-free medium in stem cells."}}, "note": "“Also recorded” adds a separate entry of the source."}
{"molecule": "LIF: human recombinant leukemia inhibitory factor (hrLIF) (Millipore)", "values": [{"measurement": "concentration range appropriate for XEN cell culture", "setting": "porcine XEN cells [1]", "value": "0.1 to 20", "unit": "ng/mL"}, {"measurement": "colony morphology / proliferation on withdrawal of the factor", "setting": "porcine XEN cells [2]", "value": "cell proliferation was inhibited"}, {"measurement": "AP staining and GATA6 expression on withdrawal of the factor", "setting": "porcine XEN cells [2]", "value": "detected locally; also recorded: intense GATA6 expression only in the colony center"}]}
{"molecule": "FGF2: fibroblast growth factor 2 (FGF2) (R&D Systems)", "values": [{"measurement": "doubling time", "setting": "porcine XEN cells [3]; DMEM/F12-based KSR-containing medium, factor alone", "value": "prolonged"}, {"measurement": "proliferation / growth of XEN cells", "setting": "porcine XEN cells [3]; DMEM/F12-based KSR-containing serum-free medium, 2b", "value": "insufficient to proliferate XEN cells"}, {"measurement": "concentration range appropriate for XEN cell culture", "setting": "porcine XEN cells [1]", "value": "10 to 100", "unit": "ng/mL"}, {"measurement": "number of XEN colonies", "setting": "porcine XEN cells [1]; low concentration of the factor, FIG. 4a, 4b", "value": "few colonies were detected"}, {"measurement": "colony morphology / proliferation on withdrawal of the factor", "setting": "porcine XEN cells [2]", "value": "no colonies after 4 days"}, {"measurement": "AP staining and GATA6 expression on withdrawal of the factor", "setting": "porcine XEN cells [2]", "value": "detected locally"}]}
{"molecule": "Cc1c[nH]c(-c2cnc(NCCNc3ccc(C#N)cn3)nc2-c2ccc(Cl)cc2Cl)n1", "note": "[CHIR99021, reference compound]", "values": [{"measurement": "concentration range appropriate for XEN cell culture", "setting": "porcine XEN cells [1]", "value": "0.5 to 4.5", "unit": "µM"}, {"measurement": "colony morphology / proliferation on withdrawal of the factor", "setting": "porcine XEN cells [2]", "value": "colony boundaries collapsed and cell density within colonies decreased"}, {"measurement": "AP staining and GATA6 expression on withdrawal of the factor", "setting": "porcine XEN cells [2]", "value": "detected locally"}]}
{"molecule": "Act A: activin A (R&D Systems) (protein, UniProt P08476 311-426, looked up, Inhibin beta A chain) Inhibin beta A chain: GLECDGKVNICCKKQFFVSFKDIGWNDWIIAPSGYHANYCEGECPSHIAGTSGSSLSFHSTVINHYRMRGHSPFANLKSCCVPTKLRPMSMLYYDDGQNIIKKDIQNMIVEECGCS", "values": [{"measurement": "AP staining and GATA6 expression on withdrawal of the factor", "setting": "porcine XEN cells [2]", "value": "evenly positive"}, {"measurement": "self-renewal of porcine XEN cells", "setting": "porcine XEN cells [2]; high concentration, control versus Act A withdrawn", "value": "inhibits the self-renewal"}]}
